{"source": "patent US10111885B2", "about": "“Compositions and therapeutic methods for the treatment of complement-associated diseases” (Resverlogix Corp., priority 2015, dated 2018)", "assay_in_all_cases": "Microarray analysis of ex-vivo treated human whole blood", "type_in_all_cases": "cell-based", "settings_in_all_cases": "20 uM, 24 h", "key": {"[1]": {"system": "CD55 mRNA", "experimental": "(§1) In this example, RNA from human whole blood treated ex vivo was analyzed by microarray. The method can be used to determine the effect of compounds, including those in the present invention, on RNA levels (Table 6).\n(§2) After obtaining informed consent, whole blood was collected from three healthy volunteers into BD Vacutainer Sodium Heparin tubes and samples were inverted 10 times. Blood samples (1 mL) were combined with 1 mL of RPMI containing 2 mM glutamine, 100 U/mL penicillin, 100 ug/mL streptomycin, 20% FBS and the compound of interest or vehicle (0.1% DMSO), followed by a 24 h incubation at 37° C. Treated samples were transferred to a PAXgene RNA tube (PreAnalytix/Qiagen), inverted 5 times and frozen. RNA was isolated with the PAXgene RNA kit according to manufacturer's instructions. Microarray analysis was performed by Asuragen (Austin, Tex.) using the Affymetrix Human […]. Shown in Table 6 is the mean of 3 independent samples (p<0.01). Downregulation of expression of components of the complement cascade will result in reduced activity of the pathway and thus will constitute a positive result. Upregulation of negative regulators or downregulation of positive regulators of the pathway will also result in reduced activity of the pathway and thus will constitute a positive result."}, "[2]": {"system": "CD59 mRNA", "experimental": "as §1, §2"}, "[3]": {"system": "Complement component 3 (C3) mRNA", "experimental": "as §1, §2"}}}
{"smiles": "COc1cc(OC)c2c(=O)[nH]c(-c3cc(C)c(OCCO)c(C)c3)nc2c1", "note": "[RVX000222, 2-(4-(2-hydroxyethoxy)-3,5-dimethylphenyl)-5,7-dimethoxyquinazolin-4(3H)-one]", "values": [{"measurement": "CD55 % change in expression", "setting": "[1]", "result": 58, "unit": "%"}, {"measurement": "CD59 % change in expression", "setting": "[2]", "result": 88, "unit": "%"}, {"measurement": "Complement component 3 (C3) % change in expression", "setting": "[3]", "result": "−59", "unit": "%"}]}
